In patent US10519162B2, “6,7-dihydropyrazolo[1,5-α]pyrazin-4(5H)-one compounds and their use as negative allosteric modulators of mGluR2 receptors” (Janssen Pharmaceutica NV, priority 2014, dated 2019):

Experiments:
human mGlu2 receptor = molecular target: T1, human mGlu2 receptor (Homo sapiens, UniProt Q14416); assay: [35S]GTPγS binding assay (mGluR2 negative allosteric modulation, glutamate ~EC80 60 μM); assay type: biochemical; settings: for GTPγS-hmGluR2 anGT Emax / Emax: maximal % inhibition relative to the control glutamate response (EC80 glutamate); for IC50: membranes from CHO cells transfected with human mGlu2 receptor, glutamate ~EC80 (60 μM), pIC50 = −log IC50 (M), read-out: GTPγS-hmGluR2 anGT pIC50 (converted); for Emax: read-out: GTPγS-hmGluR2 anGT Emax
T1 construct: expressed in transfected cells; host or cells: CHO cells
T1 sequence (Q14416 19-872): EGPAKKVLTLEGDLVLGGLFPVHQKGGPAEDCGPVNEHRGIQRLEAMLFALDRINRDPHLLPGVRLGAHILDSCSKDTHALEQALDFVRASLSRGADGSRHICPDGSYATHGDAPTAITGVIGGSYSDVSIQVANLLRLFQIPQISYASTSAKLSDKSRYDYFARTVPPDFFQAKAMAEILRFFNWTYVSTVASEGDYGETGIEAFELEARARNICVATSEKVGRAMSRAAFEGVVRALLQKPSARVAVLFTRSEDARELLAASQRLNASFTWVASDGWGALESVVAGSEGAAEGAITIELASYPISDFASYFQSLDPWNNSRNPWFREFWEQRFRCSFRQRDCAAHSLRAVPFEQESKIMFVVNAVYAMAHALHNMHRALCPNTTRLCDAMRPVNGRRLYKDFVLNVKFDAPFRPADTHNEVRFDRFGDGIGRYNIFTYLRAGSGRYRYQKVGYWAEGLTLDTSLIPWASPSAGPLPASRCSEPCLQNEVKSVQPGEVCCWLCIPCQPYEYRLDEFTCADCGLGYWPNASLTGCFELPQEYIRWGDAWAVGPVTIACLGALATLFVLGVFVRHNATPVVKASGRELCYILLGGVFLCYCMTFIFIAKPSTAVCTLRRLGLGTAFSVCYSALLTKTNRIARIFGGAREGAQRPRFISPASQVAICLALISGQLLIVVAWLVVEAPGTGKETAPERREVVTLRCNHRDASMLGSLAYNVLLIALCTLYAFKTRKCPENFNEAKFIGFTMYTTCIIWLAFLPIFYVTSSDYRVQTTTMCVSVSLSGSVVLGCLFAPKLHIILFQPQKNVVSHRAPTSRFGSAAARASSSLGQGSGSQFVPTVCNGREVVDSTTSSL
Procedure: 1) [^35S]GTPγS Binding Assay
[^35S]GTPγS Binding Assay
Total reaction volume was 200 μl. […] Membrane-bound radioactivity was counted in a Topcount.

Male Wiga Wistar rats = assay: Reversal of LY-404039-induced decrease of palpebral opening in apomorphine-challenged rats (APO LY-404039); assay type: in vivo, rat; settings: for ED50: Rattus norvegicus, PO (oral route), apomorphine challenged rats
Procedure: B) In Vivo Pharmacology 1) Reversal of LY-404039-Induced Decrease of Palpebral Opening in Apomorphine-Challenged Rats.
Male Wiga Wistar rats (Crl:WI; Charles River Germany; 220±40 g) were housed under standard laboratory conditions (21±2° C.; 50-65% relative humidity; light-dark cycle set at 12 h; lights on at 6.00 h) and fasted overnight prior to the start of the experiments (tap water remained available ad libitum). During the test period, they were housed in individual cages. Palpebral opening was scored every 5 min over the first hour after injection of apomorphine (1.0 mg/kg, i.v.) in animals either pretreated or not pretreated with LY-404039 (2.5 mg/kg, s.c.) at 1 h prior to the apomorphine injection. The animals were also pretreated with test compound or solvent at a predefined interval before apomorphine challenge. The score system was: (5) exophthalmos, (4) wide open, (3) open for three-quarters, (2) half open, (1) open for one-quarter, (0) closed. The scores for palpebral opening were cumulated over the 60-min observation period.
In animals receiving apomorphine alone the median palpebral opening is 43 whereas in animals receiving apomorphine and LY-404039, the median palpebral opening is 17.

rats = assay: Reversal of the effect of the mGluR2 PAM JNJ-42153605-induced inhibition of scopolamine-induced hyperlocomotion (SCOP JNJ-42153605); assay type: in vivo, rat; settings: Rattus norvegicus; PO (oral route); rats; reversal criterion total distance >1500 cm
How it was run: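 Rats got test compound or vehicle 60 min pre-recording, JNJ-42153605 (20 mg/kg, i.v.) 30 min pre-recording, then scopolamine (0.16 mg/kg, i.v.) just before. Total distance over the first 30 min was video-tracked; all-or-none reversal criterion: total distance >1500 cm.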

Wiga rats = assay: Induction of mydriasis (MYD); assay type: in vivo; settings: Rattus norvegicus, PO (oral route), pupil diameter >25 units, 1-3 h post-administration
Procedure: 3) Induction of Mydriasis
The pupil diameter of Wiga rats was measured with a microscopic micrometer (1 unit=1/24 mm). Criteria for drug-induced effects: pupil diameter >25 units for mydriasis (in controls: 1.9%) 1, 2 or 3 h post-administration of the test compound (wherein the maximum pupil diameter over the full 3 h period is reported).

[1] = control animals, cumulative score over 60 min

SMILES	GTPγS-hmGluR2 anGT Emax (human mGlu2 receptor)	IC50 (human mGlu2 receptor)	ED50 (Male Wiga Wistar rats)	ED50 (rats)	melting point	Palpebral opening score, occurrence score > 26 (%) (Male Wiga Wistar rats; [1])	Palpebral opening score, occurrence score > 34 (%) (Male Wiga Wistar rats; [1])	Palpebral opening score, median score (Male Wiga Wistar rats; control animals, scores cumulated over 60 min after apomorphine 1.0 mg/kg i.v., LY-404039 2.5 mg/kg s.c. 1 h before)	Emax (human mGlu2 receptor)	ED50 (Wiga rats)
COCC1CN(c2ccc(C(F)(F)F)cc2)C(=O)c2c(NC(=O)c3ccccc3F)cnn21 (single isomer, unassigned) [Co. No. 62a]	111%	1.26e-08 M	> 2.5 mg/kg	> 2.5 mg/kg	162.59 °C					
COCC1CN(c2ccc(C(F)(F)F)cc2)C(=O)c2c(NC(=O)c3ccc(N)nc3)cnn21 (single isomer, unassigned) [Co. No. 95]	114%	6.31e-09 M	> 2.5 mg/kg	1.26 mg/kg	225.94 °C					
CN1CCc2cccc3c2[C@H]1Cc1ccc(O)c(O)c1-3 [Apomorphine alone, apomorphine, reference compound]						99.5%	95.9%	43		
C[C@H]1CN(c2ccc(C(F)(F)F)c(Cl)c2)C(=O)c2c(NC(=O)c3ccc(N)nc3)cnn21 [Co. No. 1, 6-Amino-N-[(7S)-5-[3-chloro-4-(trifluoromethyl)phenyl]-7-methyl-4-oxo-6,7-dihydropyrazolo[1,5-a]pyrazin-3-yl]pyridine-3-carboxamide]		1.15e-09 M	0.39 mg/kg	0.26 mg/kg	219.62 °C				109%	14.1 mg/kg
Cc1cc(N2C[C@H](C)n3ncc(NC(=O)c4ccc(N)nc4)c3C2=O)ccc1C(F)(F)F [Co. No. 4]		1.66e-09 M	1.26 mg/kg	0.5 mg/kg	202.24 °C				106%	
Cc1cc(C(=O)Nc2cnn3c2C(=O)N(c2ccc(C(F)(F)F)c(Cl)c2)C[C@@H]3C)ccn1 [Co. No. 12]		2.14e-09 M	0.42 mg/kg	0.32 mg/kg	159.96 °C				107%	21.5 mg/kg
C[C@H]1CN(c2ccc(C(F)(F)F)c(F)c2)C(=O)c2c(NC(=O)c3ccc(N)nc3)cnn21 [Co. No. 13]		2.63e-09 M	0.2 mg/kg	0.32 mg/kg	207.25 °C				109%	
C[C@H]1CN(c2ccc(C(F)(F)F)cc2)C(=O)c2c(NC(=O)c3cccnc3)cnn21 [Co. No. 28]		7.59e-09 M	0.78 mg/kg	0.39 mg/kg	152.59 °C				107%	25 mg/kg
Cc1cc(C(=O)Nc2cnn3c2C(=O)N(c2ccc(C(F)(F)F)cc2)C[C@@H]3C)cc(C)n1 [Co. No. 93]		2.75e-09 M	0.79 mg/kg	0.5 mg/kg	154.26 °C				110%	
Cc1cncc(C(=O)Nc2cnn3c2C(=O)N(c2ccc(C(F)(F)F)c(Cl)c2)C[C@@H]3C)c1 [Co. No. 101, N-[(7S)-5-[3-chloro-4-(trifluoromethyl)phenyl]-7-methyl-4-oxo-6,7-dihydropyrazolo[1,5-a]pyrazin-3-yl]-5-methyl-pyridine-3-carboxamide]		1.12e-09 M	0.18 mg/kg	> 0.63 mg/kg	160.38 °C				107%	5 mg/kg
Cc1cc(C(=O)Nc2cnn3c2C(=O)N(c2ccc(Cl)c(Cl)c2)C[C@@H]3C)cc(C)n1 [Co. No. 106]		1.07e-09 M	> 0.63 mg/kg	> 0.63 mg/kg	186.11 °C				108%	
Cc1ccncc1C(=O)Nc1cnn2c1C(=O)N(c1ccc(C(F)(F)F)c(Cl)c1)C[C@@H]2C [Co. No. 120]		1.82e-09 M	> 0.63 mg/kg	> 0.63 mg/kg	145.92 °C				109%	
Cc1cc(N2C[C@H](C)n3ncc(NC(=O)c4cccnc4)c3C2=O)ccc1C(F)(F)F [Co. No. 145]		4.57e-09 M	0.5 mg/kg	> 0.63 mg/kg	120.33 °C				105%	6.6 mg/kg
C[C@H]1CN(c2ccc(C(F)(F)F)c(F)c2)C(=O)c2c(NC(=O)c3cccnc3)cnn21 [Co. No. 148]		8.51e-09 M	> 0.63 mg/kg	> 0.63 mg/kg	166.06 °C				105%	
Cc1cc(C(=O)Nc2cnn3c2C(=O)N(c2ccc(Cl)c(Cl)c2)C[C@@H]3C)ccn1 [Co. No. 171]		2.29e-09 M	> 0.63 mg/kg	> 0.63 mg/kg	108.41 °C				104%	
C[C@H]1CN(c2ccc(C(F)(F)F)c(Cl)c2)C(=O)c2c(NC(=O)c3cnccn3)cnn21 [Co. No. 176]		1.7e-09 M		0.32 mg/kg	230.53 °C				108%	> 10 mg/kg
C[C@H]1CN(c2ccc(OC(F)(F)F)cc2)C(=O)c2c(NC(=O)c3cccnc3)cnn21 [Co. No. 178]		1.48e-08 M		0.318 mg/kg	125.45 °C				105%	> 10 mg/kg
C[C@H]1CN(c2ccc(C(F)(F)F)c(Cl)c2)C(=O)c2c(NC(=O)c3cccnc3N)cnn21 [Co. No. 182]		7.08e-10 M		0.0985 mg/kg	142.58 °C				110%	> 10 mg/kg
Cc1cc(N2C[C@H](C)n3ncc(NC(=O)c4cccnc4N)c3C2=O)ccc1C(F)(F)F [Co. No. 184]		1.23e-09 M		0.2 mg/kg	175.63 °C				110%	> 10 mg/kg
C[C@H]1CN(c2ccc(Cl)c(Cl)c2)C(=O)c2c(NC(=O)c3cccnc3N)cnn21 [Co. No. 185]		1.07e-09 M		0.08 mg/kg	193.17 °C				113%	> 10 mg/kg
C[C@H]1CN(c2ccc(C(F)(F)F)cc2)C(=O)c2c(NC(=O)c3cccnc3N)cnn21 [Co. No. 189]		1.82e-09 M		0.2 mg/kg	214.96 °C				109%	> 10 mg/kg
Cc1cnc(N)c(C(=O)Nc2cnn3c2C(=O)N(c2ccc(C(F)(F)F)cc2)C[C@@H]3C)c1 [Co. No. 191]		1.95e-09 M		0.318 mg/kg	222.34 °C				112%	> 10 mg/kg
C[C@H]1CN(c2ccc(OC(F)(F)F)cc2)C(=O)c2c(NC(=O)c3cccnc3N)cnn21 [Co. No. 196]		2.63e-09 M		0.32 mg/kg	188.46 °C				109%	> 10 mg/kg
Cc1cnc(N)c(C(=O)Nc2cnn3c2C(=O)N(c2ccc(C(F)(F)F)c(C)c2)C[C@@H]3C)c1 [Co. No. 197]		1.32e-09 M		0.13 mg/kg	190.13 °C				108%	> 10 mg/kg
